In patent publication US20160244437A1, “SUBSTITUTED PHENYLALANINE DERIVATIVES” (BAYER PHARMA AKTIENGESELLSCHAFT, priority 2013, published 2016) one finds IC50 and aPTT data, which are given here for 19 compounds.

Test [1] concerns the target T1, human factor XIa (Homo sapiens, UniProt P03951).
T1 construct: purchased Kordia
The experiment in a line: Measurement of FXIa inhibition (fluorogenic peptide substrate Boc-Glu(OBzl)-Ala-Arg-AMC). The test is classed as biochemical. To be noted: factor XIa from Kordia 0.45 nM, 15 min pre-incubation, 30 min at 22° C., fluorescence.

Test [2] has as its system human and animal plasma. Nature of the test: Determination of anticoagulatory activity: activated partial thromboplastin time (aPTT) in plasma. Conditions: concentration of test substance which brings about a 1.5-fold extension of the aPTT; plasma in vitro, C.K. Prest kit. In short, it runs like this: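 Citrated plasma (human, mouse, rat, rabbit, pig, dog) incubated with varying compound concentrations and cephalin/kaolin PTT reagent for 3 minutes at 37° C.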

Where a name gives a salt, the structure may show the parent alone.

T1 sequence (P03951 388-625 limits assumed): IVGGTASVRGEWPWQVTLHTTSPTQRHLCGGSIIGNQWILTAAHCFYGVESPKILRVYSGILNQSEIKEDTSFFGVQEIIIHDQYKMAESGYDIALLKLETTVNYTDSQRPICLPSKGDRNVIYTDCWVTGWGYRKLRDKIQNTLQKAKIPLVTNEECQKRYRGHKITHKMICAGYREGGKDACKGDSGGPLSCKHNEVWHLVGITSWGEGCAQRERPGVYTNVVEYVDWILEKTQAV
T1 sequence (P03951 19-387 partner limits assumed): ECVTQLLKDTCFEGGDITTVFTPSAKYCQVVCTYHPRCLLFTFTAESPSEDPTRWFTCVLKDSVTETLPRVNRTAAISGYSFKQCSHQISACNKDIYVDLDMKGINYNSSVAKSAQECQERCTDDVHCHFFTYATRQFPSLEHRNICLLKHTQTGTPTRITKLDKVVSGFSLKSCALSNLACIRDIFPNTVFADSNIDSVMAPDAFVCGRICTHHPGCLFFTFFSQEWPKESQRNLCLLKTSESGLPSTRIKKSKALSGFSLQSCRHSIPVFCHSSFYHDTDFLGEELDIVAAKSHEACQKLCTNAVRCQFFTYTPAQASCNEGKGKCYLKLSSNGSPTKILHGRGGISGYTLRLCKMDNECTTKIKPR

For `CN1CCN(C(=O)c2cccc(-c3cccc(C[C@H](NC(=O)[C@H]4CC[C@H](CN)CC4)C(=O)Nc4ccc(-c5nnc(Cl)[nH]5)cc4)c3)c2)CC1` [Example 24, trans-4-(Aminomethyl)-N-[(2S)-1-{[4-(3-chloro-4H-1,2,4-triazol-5-yl)phenyl]amino}-3-{3′-[(4-methylpiperazin-1-yl)carbonyl]biphenyl-3-yl}-1-oxopropan-2-yl]cyclohexanecarboxamide hydrochloride], the 50% inhibitory concentration (IC50) in test [1] was 4.3 nM. In addition, in test [2], the aPTT turned out to be 0.15 µmol/L.
Taken in the same sequence, the figures for `CC(=O)Nc1ccc(Cl)c(-c2cccc(C[C@H](NC(=O)[C@H]3CC[C@H](CN)CC3)C(=O)Nc3ccc(-c4nnn[nH]4)cc3)c2)c1` [Example 86, trans-N-[(2S)-3-[5′-(Acetylamino)-2′-chlorobiphenyl-3-yl]-1-oxo-1-{[4-(1H-tetrazol-5-yl)phenyl]amino}propan-2-yl]-4-(aminomethyl)cyclohexanecarboxamide hydrochloride] were 2.5 nM and 0.24 µmol/L.
`CN(C)CCCOc1ccc(-c2cccc(C[C@H](NC(=O)[C@H]3CC[C@H](CN)CC3)C(=O)Nc3ccc(-c4nc(C(F)(F)C(F)(F)C(F)(F)C(=O)O)n[nH]4)cc3)c2)cn1` [Example 108, 4-(5-{4-[(N-{[trans-4-(Aminomethyl)cyclohexyl]carbonyl}-3-{6-[3-(dimethylamino)propoxy]pyridin-3-yl}-L-phenylalanyl)amino]phenyl}-1H-1,2,4-triazol-3-yl)-2,2,3,3,4,4-hexafluorobutanoic acid hydrochloride] yielded a concentration for half-maximal inhibition (IC50) in test [1] of 5.5 nM. In test [2], the aPTT was found to be 0.25 µmol/L.
Taken in the same sequence, the figures for `Cc1ccc(C(=O)NC2C3CNCC32)cc1-c1cccc(C[C@H](NC(=O)C2CCC(CN)CC2)C(=O)Nc2ccc(-c3nnn[nH]3)cc2)c1` (stereo partly drawn) [Example 16, 3′-[(2S)-2-({[trans-4-(Aminomethyl)cyclohexyl]carbonyl}amino)-3-oxo-3-{[4-(1H-tetrazol-5-yl)phenyl]amino}propyl]-N-(3-azabicyclo[3.1.0]hex-6-yl)-6-methylbiphenyl-3-carboxamide hydrochloride] were 5.5 nM and 0.25 µmol/L.
Taken in the same sequence, the figures for `NC[C@H]1CC[C@H](C(=O)N[C@@H](Cc2cccc(-c3cnc(N4CCOCC4)nc3)c2)C(=O)Nc2ccc(-c3n[nH]c(C(F)(F)C(F)(F)C(=O)O)n3)cc2)CC1` [Example 96, 3-(3-{4-[(N-{[trans-4-(Aminomethyl)cyclohexyl]carbonyl}-3-[2-(morpholin-4-yl)pyrimidin-5-yl]-L-phenylalanyl)amino]phenyl}-1H-1,2,4-triazol-5-yl)-2,2,3,3-tetrafluoropropanoic acid hydrochloride] were 3.3 nM and 0.19 µmol/L.
In the case of `NC[C@H]1CC[C@H](C(=O)N[C@@H](Cc2cccc(-c3cccc(S(=O)(=O)NC4CC4)c3)c2)C(=O)Nc2ccc(-c3nnn[nH]3)cc2)CC1` [Example 6, trans-4-(Aminomethyl)-N-[(2S)-3-[3′-(cyclopropylsulphamoyl)biphenyl-3-yl]-1-oxo-1-{[4-(1H-tetrazol-5-yl)phenyl]amino}propan-2-yl]cyclohexanecarboxamide hydrochloride], half-maximal inhibition in test [1] (IC50) was put at 1.9 nM. This compound also showed an aPTT in test [2] of 0.27 µmol/L.
Taken in the same sequence, the figures for `NC[C@H]1CC[C@H](C(=O)N[C@@H](Cc2cccc(-c3ccccc3S(=O)(=O)N3CCOCC3)c2)C(=O)Nc2ccc(-c3nn[nH]n3)cc2)CC1` [Example 54, trans-4-(Aminomethyl)-N-[(2S)-3-[2′-(morpholin-4-ylsulphonyl)biphenyl-3-yl]-1-oxo-1-{[4-(2H-tetrazol-5-yl)phenyl]amino}propan-2-yl]cyclohexanecarboxamide hydrochloride] were 1.9 nM and 0.28 µmol/L.
Take `Cc1ccc(S(=O)(=O)N2CCCC2)cc1-c1cccc(C[C@H](NC(=O)[C@H]2CC[C@H](CN)CC2)C(=O)Nc2ccc(-c3nnn[nH]3)cc2)c1` [Example 2, trans-4-(Aminomethyl)-N-[(2S)-3-[2′-methyl-5′-(pyrrolidin-1-ylsulphonyl)biphenyl-3-yl]-1-oxo-1-{[4-(1H-tetrazol-5-yl)phenyl]amino}propan-2-yl]cyclohexanecarboxamide hydrochloride]: in test [1], the half-maximal inhibitory concentration (IC50) was found to be 1.1 nM. Besides, the aPTT in test [2] amounted to 0.08 µmol/L.
In test [1], `CC(C)N1CCC(NC(=O)c2cccc(-c3cccc(C[C@H](NC(=O)[C@H]4CC[C@H](CN)CC4)C(=O)Nc4ccc(-c5nnc(Cl)[nH]5)cc4)c3)c2)CC1` [Example 30, 3′-[(2S)-2-({[trans-4-(Aminomethyl)cyclohexyl]carbonyl}amino)-3-{[4-(3-chloro-4H-1,2,4-triazol-5-yl)phenyl]amino}-3-oxopropyl]-N-[1-(propan-2-yl)piperidin-4-yl]biphenyl-3-carboxamide hydrochloride] registered an IC50 of 5.8 nM. This compound registered an aPTT in test [2] of 0.34 µmol/L.
Taken in the same sequence, the figures for `Cc1ccc(C[C@H](NC(=O)[C@H]2CC[C@H](CN)CC2)C(=O)Nc2ccc(-c3nnn[nH]3)cc2)cc1-c1cccc(C(=O)NC2CCN(C(C)C)CC2)c1` [Example 19, 5′-[(2S)-2-({[trans-4-(Aminomethyl)cyclohexyl]carbonyl}amino)-3-oxo-3-{[4-(1H-tetrazol-5-yl)phenyl]amino}propyl]-2′-methyl-N-[1-(propan-2-yl)piperidin-4-yl]biphenyl-3-carboxamide hydrochloride] were 6 nM and 0.14 µmol/L.
In test [1], `COc1ccc(C[C@H](NC(=O)[C@H]2CC[C@H](CN)CC2)C(=O)Nc2ccc(-c3nn[nH]n3)cc2)cc1-c1ccc(C(=O)NCCN)cc1C` [Example 58, N-(2-Aminoethyl)-5′-[(2S)-2-({[trans-4-(aminomethyl)cyclohexyl]carbonyl}amino)-3-oxo-3-{[4-(2H-tetrazol-5-yl)phenyl]amino}propyl]-2′-methoxy-2-methylbiphenyl-4-carboxamide hydrochloride] had an IC50 of 17 nM. Further, the aPTT in test [2] turned out to be 0.3 µmol/L.
Taken in the same sequence, the figures for `NC[C@H]1CC[C@H](C(=O)N[C@@H](Cc2cccc(-c3cc(C(N)=O)ccc3Cl)c2)C(=O)Nc2ccc(-c3nnn[nH]3)cc2)CC1` [Example 38, 3′-[(2S)-2-({[trans-4-(Aminomethyl)cyclohexyl]carbonyl}amino)-3-oxo-3-{[4-(1H-tetrazol-5-yl)phenyl]amino}propyl]-6-chlorobiphenyl-3-carboxamide hydrochloride] were 4.8 nM and 0.2 µmol/L.
In turn, `NC[C@H]1CC[C@H](C(=O)N[C@@H](Cc2cccc(-c3ccc(C(=O)NCCN4CCCC4)cc3)c2)C(=O)Nc2ccc(-c3nnn[nH]3)cc2)CC1` [Example 41, 3′-[(2S)-2-({[trans-4-(Aminomethyl)cyclohexyl]carbonyl}amino)-3-oxo-3-{[4-(1H-tetrazol-5-yl)phenyl]amino}propyl]-N-[2-(pyrrolidin-1-yl)ethyl]biphenyl-4-carboxamide hydrochloride] registered an IC50 in test [1] of 8.4 nM. The aPTT in test [2] was found to be 0.32 µmol/L.
In the same order, the values of `NC[C@H]1CC[C@H](C(=O)N[C@@H](Cc2cccc(-c3cccc(C(=O)NCCN4CCOCC4)c3)c2)C(=O)Nc2ccc(-c3nnn[nH]3)cc2)CC1` [Example 29, 3′-[(2S)-2-({[trans-4-(Aminomethyl)cyclohexyl]carbonyl}amino)-3-oxo-3-{[4-(1H-tetrazol-5-yl)phenyl]amino}propyl]-N-[2-(morpholin-4-yl)ethyl]biphenyl-3-carboxamide hydrochloride] are 5.5 nM and 0.37 µmol/L.
In the same order, the values of `Cc1ccc(S(=O)(=O)N2CCCC2)cc1-c1cccc(C[C@H](NC(=O)[C@H]2CC[C@H](CN)CC2)C(=O)Nc2ccc(-c3noc(=O)[nH]3)cc2)c1` [Example 36, trans-4-(Aminomethyl)-N-[(2S)-3-[2′-methyl-5′-(pyrrolidin-1-ylsulphonyl)biphenyl-3-yl]-1-oxo-1-{[4-(5-oxo-4,5-dihydro-1,2,4-oxadiazol-3-yl)phenyl]amino}propan-2-yl]cyclohexanecarboxamide hydrochloride] are 2.2 nM and 0.12 µmol/L.
Take `NC[C@H]1CC[C@H](C(=O)N[C@@H](Cc2cccc(-c3cnc(N)nc3)c2)C(=O)Nc2ccc(-c3nnn[nH]3)cc2)CC1` [Example 79, N-alpha-{[trans-4-(Aminomethyl)cyclohexyl]carbonyl}-3-(2-aminopyrimidin-5-yl)-N-[4-(1H-tetrazol-5-yl)phenyl]-L-phenylalaninamide hydrochloride]: the half-maximal inhibitory concentration (IC50) in test [1] is 2.3 nM. Besides, in test [2], the aPTT was determined as 0.14 µmol/L.
In the case of `Cc1ccc(S(=O)(=O)NCc2ccccc2)cc1-c1cccc(C[C@H](NC(=O)[C@H]2CC[C@H](CN)CC2)C(=O)Nc2ccc3[nH]c(=O)[nH]c3c2)c1` [Example 12, trans-4-(Aminomethyl)-N-{(2S)-3-[5′-(benzylsulphamoyl)-2′-methylbiphenyl-3-yl]-1-oxo-1-[(2-oxo-2,3-dihydro-1H-benzimidazol-5-yl)amino]propan-2-yl}cyclohexanecarboxamide hydrochloride], it took 3.2 nM to reach half-maximal inhibition in test [1] (IC50). The compound further came in with an aPTT in test [2] of 0.3 µmol/L.
With `Cc1cc(N)ccc1-c1cccc(C[C@H](NC(=O)[C@H]2CC[C@H](CN)CC2)C(=O)Nc2ccc(-c3nnn[nH]3)cc2)c1` [Example 97, trans-4-(Aminomethyl)-N-[(2S)-3-(4′-amino-2′-methylbiphenyl-3-yl)-1-oxo-1-{[4-(1H-tetrazol-5-yl)phenyl]amino}propan-2-yl]cyclohexanecarboxamide hydrochloride], in test [1], the IC50 is 2.1 nM. The aPTT in test [2] came to 0.12 µmol/L.
For the compound `NC[C@H]1CC[C@H](C(=O)N[C@@H](Cc2cccc(-c3cnc(N4CCOCC4)nc3)c2)C(=O)Nc2ccc(-c3nnc(Cl)[nH]3)cc2)CC1` [Example 92, N-alpha-{[trans-4-(Aminomethyl)cyclohexyl]carbonyl}-N-[4-(3-chloro-4H-1,2,4-triazol-5-yl)phenyl]-3-[2-(morpholin-4-yl)pyrimidin-5-yl]-L-phenylalaninamide hydrochloride], the half-inhibitory concentration (IC50) in test [1] turned out to be 3.6 nM. This compound returned an aPTT in test [2] of 0.37 µmol/L.
